Data set [1] is described as follows: in vivo. As to conditions: male, Syrian golden, hamster, po, 500 mg/kg.
The conditions of data set [2]: male, Syrian golden, hamster, in vivo, po, 500 mg/kg.
For data set [3], the system named is Yellow fever virus (YFV). The conditions noted are these: read-out: EC50, 50% inhibition of the virus-induced cytopathic effect (CPE); cited from earlier work. For orientation: Cytopathic effects are the visible damage that an infection or toxin causes in cultured cells.
The subject of data set [4] is Yellow fever virus (YFV). The conditions noted are these: read-out: EC90 in reducing viral yield; cited from earlier work.
Data set [5] can be described thus: in vivo. As to conditions: male, Syrian golden, hamster, po, 500 mg/kg. The source holds these as a separate data set.
The conditions of data set [6]: male, Syrian golden, hamster, in vivo, po, 500 mg/kg. This is another data set of the same source.
A further data set relates to HCV clinical isolates. As to conditions: cited from earlier work.
For data set [7] the following is noted: cited from earlier work.
For data set [8] the following is noted: cited from earlier work. This is another data set of the same source.

The structures appear in SMILES notation. Where two headings read alike, the source gives them in different places. A value given as a limit tells only on which side of the number the result lay.

The term MRT last denotes the average time that molecules of a dose stay in the body. The term Tmax denotes the time from dosing to the highest level. For orientation: EC50 means the concentration at which the effect is half-maximal. Broadly, the EC90 is the concentration needed for an effect of 90%. What is called AUC(0-t) is exposure summed from dosing to a finite time, without extrapolation to infinity. Lower therefore signals less exposure. As a reminder, the Cmax is the highest concentration seen after dosing. The molecule `CNc1nc(N)nc2c1ncn2C1OC(COP(=O)(NC(C)C(=O)OC(C)C)Oc2ccccc2)C(O)C1(C)F` (stereo not drawn) [AT-281] gave an MRT last in “in vivo [1]” (MRT0-last) of 4.2 h. Besides, the Tmax in the data set “in vivo [1]” stood at 2 h. In data set [2], the “Plasma concentration at 12 h post dose (Ctrough)” value (“Plasma concentration” below) is 6 ± 2 nM. In the data set on Yellow fever virus (YFV) [3], the EC50 was 310 nM. Also, in the data set on Yellow fever virus (YFV) [4], the EC90 was 260 nM. Also, in the data set “in vivo [5]”, the area under the curve AUC(0-t) was determined as 1.7 ± 0.5 µM·h, the Cmax came to 600 ± 200 nM, the MRT last stood at 3.4 ± 1 h and the Tmax stood at 2 ± 1.7 h. Besides, in [6], the “Concentration measured in brain tissue” value is recorded as “no AT-281 was detected”, the “Concentration measured in lung tissue” value was “no AT-281 was detected” and the MRT0-last came to 4.5 h.
`C[C@@]1(F)[C@H](O)[C@@H](COP(=O)(O)OP(=O)(O)OP(=O)(O)O)O[C@H]1n1cnc2c(=O)[nH]c(N)nc21` [AT-9010]: the figures for the MRT last in “in vivo [1]” (MRT0-last) and in the data set “in vivo [1]” (Mean residence times (MRT0-last) across tissues) were 11 h and 7 to 11 h, respectively. The Tmax in the data set “in vivo [1]” came out at 8 h. Also, the “Concentration measured in brain tissue” value in data set [6] is listed as “no AT-9010 detected”.
As to `CNc1nc(N)nc2c1ncn2C1OC(COP(=O)(O)NC(C)C(=O)O)C(O)C1(C)F` (stereo not drawn) [AT-551], the MRT last in the data set “in vivo [1]” (MRT0-last) was found to be 8.5 h. Further, the “Plasma concentration” value in data set [2] was found to be 3400 ± 1700 nM. Moreover, in “in vivo [5]”, the AUC(0-t) came to 114 ± 22.1 µM·h, the Cmax is 52400 ± 23500 nM, the mean residence time MRT last came out at 4.6 ± 1.5 h and the Tmax is 0.5 h. For the same molecule, the Tmax in data set [6] amounted to 2.0 h.
Take `CNc1nc(N)nc2c1ncn2[C@@H]1O[C@H](COP(=O)(N[C@@H](C)C(=O)OC(C)C)Oc2ccccc2)[C@@H](O)[C@@]1(C)F.CNc1nc(N)nc2c1ncn2[C@@H]1O[C@H](COP(=O)(N[C@@H](C)C(=O)OC(C)C)Oc2ccccc2)[C@@H](O)[C@@]1(C)F.O=S(=O)(O)O` (stereo partly drawn) [AT-527]: the “Fold more potent than sofosbuvir” value with HCV clinical isolates is “up to 58 fold”.
`CNc1nc(N)nc2c1ncn2C1OC(COP(=O)(NC(C)C(=O)OC(C)C)Oc2ccccc2)C(O)C1(C)F` (stereo not drawn) [AT-752]: the Alive/total (21 days) was 5/5. Where the note is “hamster, in vivo”, this molecule gave an ALT of 53 ± 5 IU/L. Further, the “Toxicity, as evidenced by weight loss or mortality” value (hamster, in vivo, 1000 mg/kg) was “no toxicity”. The “Half-life in rodent plasma” value in data set [7] is < 3 min. The “Half-life in primate plasma” value in data set [8] was > 4.67 h.
In the case of `C[C@@]1(F)[C@H](O)[C@@H](CO)O[C@H]1n1cnc2c(=O)[nH]c(N)nc21` [AT-273], the MRT last in “in vivo [1]” (MRT0-last) stood at 11.6 h. Moreover, the “Plasma concentration” value in data set [2] is 600 ± 100 nM. Also, in “in vivo [5]”, the area under the curve AUC(0-t) was 10.8 ± 1.6 µM·h, the Cmax is 900 ± 100 nM, the MRT last was 9.8 ± 1.1 h and the Tmax was found to be 5.7 ± 4 h. For the same molecule, the Tmax in data set [6] is 8.0 h.

The record behind these values is paper PMC8812913 (PLoS Neglected Tropical Diseases, 2022).
